Several values for one entry are separate records, joined by “and”; a condition that tells them apart may be missing. Identical values can stand only once. Toxic doses and inconclusive results are not listed.
Test system: BDF1 mice, P388 leukemia ip, median survival T/C
Experiment: NCI In Vivo Anticancer Drug Screen. Data for tumor model P388 Leukemia (intraperitoneal) in B6D2F1 (BDF1) mice
Settings: endpoint: median survival time, higher = longer survival
Procedure, shortened: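 T/C = treated-group survival ÷ vehicle-control survival; tumour transplanted into mice before dosing.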

[1] = dose: 12.5 mg/kg/injection, schedule: Q01DX009 (ip), vehicle: saline with Tween-80
[2] = dose: 25.0 mg/kg/injection, schedule: Q01DX009 (ip), vehicle: saline with Tween-80
[3] = dose: 25.0 mg/kg/injection, schedule: Q04DX003 (ip), vehicle: saline with Tween-80
[4] = dose: 50.0 mg/kg/injection, schedule: Q01DX009 (ip), vehicle: saline with Tween-80
[5] = dose: 50.0 mg/kg/injection, schedule: Q04DX003 (ip), vehicle: saline with Tween-80
[6] = dose: 100.0 mg/kg/injection, schedule: Q01DX009 (ip), vehicle: saline with Tween-80
[7] = dose: 200.0 mg/kg/injection, schedule: Q01DX009 (ip), vehicle: saline with Tween-80
[8] = dose: 100.0 mg/kg/injection, schedule: Q04DX003 (ip), vehicle: Klucel (hydroxypropylcellulose) (HPC)
[9] = dose: 200.0 mg/kg/injection, schedule: Q04DX003 (ip), vehicle: Klucel (hydroxypropylcellulose) (HPC)
[10] = dose: 400.0 mg/kg/injection, schedule: Q04DX003 (ip), vehicle: Klucel (hydroxypropylcellulose) (HPC)
[11] = dose: 100.0 mg/kg/injection, schedule: Q04DX003 (ip), vehicle: saline with Tween-80
[12] = dose: 200.0 mg/kg/injection, schedule: Q04DX003 (ip), vehicle: saline with Tween-80
[13] = dose: 400.0 mg/kg/injection, schedule: Q01DX009 (ip), vehicle: saline with Tween-80
[14] = dose: 400.0 mg/kg/injection, schedule: Q04DX003 (ip), vehicle: saline with Tween-80
[15] = dose: 100.0 mg/kg/injection, schedule: Q01DX009 (ip), vehicle: Klucel (hydroxypropylcellulose) (HPC)
[16] = dose: 100.0 mg/kg/injection, schedule: Q04DX003 (ip), vehicle: saline

Cc1[nH]c(=O)[nH]c(=O)c1NC(=O)c1ccccc1[N+](=O)[O-] was tested, and the T/C [1] was 95 % of control, the T/C (dose: 12.5 mg/kg/injection, schedule: Q04DX003 (ip), vehicle: saline with Tween-80) was 92 % of control and the T/C [2] was 104 % of control. The T/C [3] was 92 % of control, the T/C [4] was 87 % of control and the T/C [5] was 92 % of control.
With Cc1ccc(S)cc1 the T/C [1] was 104 % of control, the T/C [2] was 95 % of control and the T/C [3] was 100 % of control. For the same compound, the T/C [4] was 108 % of control and the T/C [5] was 91 % of control.
CS(=O)CC(O)(c1ccccc1)c1ccco1 (configuration not stated) was tested, and the T/C [4] was 116 % of control, the T/C [6] was 107 % of control and the T/C [7] was 106 % of control.
In the case of CN(C)c1ccc(/C=C\c2cc(=O)[nH]c3ccccc23)cc1, the T/C [8] is reported as 87 % of control, the T/C [9] is reported as 91 % of control and the T/C [10] is reported as 87 % of control.
For O=c1[nH]c2cc(F)ccc2o1, the T/C [8] was 100 % of control, the T/C [9] was 95 % of control and the T/C [10] was 100 % of control.
In the case of COc1cccc2c1C(=O)c1c(O)c3c(c(O)c1C2=O)CC(O)(/C(C)=N/NC(=O)CC(=O)N/N=C(\C)C1(O)Cc2c(O)c4c(c(O)c2C(OC2CC(N)C(O)C(C)O2)C1)C(=O)c1c(OC)cccc1C4=O)CC3OC1CC(N)C(O)C(C)O1 (configuration not stated), the T/C (dose: 3.13 mg/kg/injection, schedule: Q01DX009 (ip), vehicle: water) is reported as 157 % of control and the T/C (dose: 6.25 mg/kg/injection, schedule: Q01DX009 (ip), vehicle: water) is reported as 186 % of control.
In the case of O=C(/C=C/c1ccccc1)c1cccc(Br)c1, the T/C [6] is reported as 91 % of control, the T/C [11] is reported as 109 % of control and the T/C [7] is reported as 98 % of control. The T/C [12] was 104 % of control, the T/C [13] was 119 % of control and the T/C [14] was 104 % of control.
For C=CC(C)C(C)(OCc1ccccc1)C(=O)O (configuration not stated), the T/C (dose: 50.0 mg/kg/injection, schedule: Q01DX005 (ip), vehicle: saline with Tween-80) was 100 % of control, the T/C (dose: 100.0 mg/kg/injection, schedule: Q01DX005 (ip), vehicle: saline with Tween-80) was 113 % of control and the T/C (dose: 200.0 mg/kg/injection, schedule: Q01DX005 (ip), vehicle: saline with Tween-80) was 106 % of control.
Cn1c([N+](=O)[O-])cnc1CSC(=S)N1CCN(C(=S)SCc2ncc([N+](=O)[O-])n2C)CC1 was tested, and the T/C [2] was 106 % of control, the T/C [4] was 103 % of control and the T/C [6] was 103 % of control.
With CSc1ncnc2c1ncn2C1CCCO1 (configuration not stated) the T/C (dose: 25.0 mg/kg/injection, schedule: Q01DX009 (ip), vehicle: Klucel (hydroxypropylcellulose) (HPC)) was 95 % of control, the T/C (dose: 50.0 mg/kg/injection, schedule: Q01DX009 (ip), vehicle: Klucel (hydroxypropylcellulose) (HPC)) was 119 % of control and the T/C [15] was 109 % of control. The T/C [16] was 104 % of control and the T/C (dose: 150.0 mg/kg/injection, schedule: Q01DX009 (ip), vehicle: Klucel (hydroxypropylcellulose) (HPC)) was 87 % of control.
In the case of CCN(CC)c1ccc2c(C)cc(=O)oc2c1, the T/C (dose: 6.25 mg/kg/injection, schedule: Q01DX009 (ip), vehicle: saline with Tween-80) is reported as 100 % of control, the T/C [1] is reported as 94 % of control and the T/C [2] is reported as 94 % of control. For the same compound, the T/C [4] was 94 % of control, the T/C [6] was 92 % of control and the T/C [7] was 94 % of control.
In the case of NC(=S)S/C=C/C(=O)O, the T/C [4] is reported as 96 % of control, the T/C [5] is reported as 100 % of control and the T/C [6] is reported as 94 % of control. The T/C [11] was 107 % of control, the T/C [7] was 100 % of control and the T/C [12] was 103 % of control. The T/C [14] was 115 % of control.
With c1ccc2c(c1)ccc1cc3c(ccc4ccccc43)cc12 the T/C [6] was 120 % of control, the T/C [11] was 118 % of control and the T/C [7] was 112 % of control. For the same compound, the T/C [12] was 109 % of control and the T/C [14] was 109 % of control.
With O=C1CC=Nc2ccc([N+](=O)[O-])cc21 the T/C [8] was 100 % of control, the T/C [9] was 90 % of control and the T/C [10] was 95 % of control.
In the case of CCOC(=O)C(=CN1CCCCC1)C(=O)OCC, the T/C [11] is reported as 95 % of control, the T/C [12] is reported as 100 % of control and the T/C [14] is reported as 100 % of control.
With CC1(C)CC2C(=O)c3ccccc3NC2c2ccccc21 (configuration not stated) the T/C [15] was 87 % of control, the T/C [8] was 112 % of control and the T/C (dose: 200.0 mg/kg/injection, schedule: Q01DX009 (ip), vehicle: Klucel (hydroxypropylcellulose) (HPC)) was 108 % of control. The T/C [9] was 104 % of control and the T/C [10] was 108 % of control.
With COC1C=CC=CC=C1 the T/C (dose: 15.0 mg/kg/injection, schedule: Q01DX009 (ip), vehicle: saline with Tween-80) was 113 % of control, the T/C (dose: 30.0 mg/kg/injection, schedule: Q01DX009 (ip), vehicle: saline with Tween-80) was 100 % of control and the T/C (dose: 60.0 mg/kg/injection, schedule: Q01DX009 (ip), vehicle: saline with Tween-80) was 113 % of control.
For COc1ccc(C(CCl)(CCl)c2ccc(OC)c(C)c2)cc1C, the T/C [6] was 104 % of control, the T/C [11] was 91 % of control and the T/C [12] was 87 % of control. The T/C [13] was 100 % of control and the T/C [14] was 100 % of control.
In the case of CSc1nc(Cl)cc2c1ncn2C1OC(CO)C(O)C1O (configuration not stated), the T/C (dose: 12.5 mg/kg/injection, schedule: Q04DX003 (ip), vehicle: saline) is reported as 105 % of control, the T/C (dose: 25.0 mg/kg/injection, schedule: Q04DX003 (ip), vehicle: saline) is reported as 102 % of control and the T/C (dose: 50.0 mg/kg/injection, schedule: Q04DX003 (ip), vehicle: saline) is reported as 102 % of control. For the same compound, the T/C [16] was 112 % of control, the T/C (dose: 200.0 mg/kg/injection, schedule: Q04DX003 (ip), vehicle: saline) was 110 % of control and the T/C (dose: 400.0 mg/kg/injection, schedule: Q04DX003 (ip), vehicle: saline) was 100 % of control.
For CN(C)C1C(=O)C(C(N)=O)=C(O)C2(O)C(=O)C3=C(O)c4c(O)cccc4C(C)(O)C3C(O)C12 (configuration not stated), the T/C (dose: 50.0 mg/kg/injection, schedule: Q01DX010 (oral), vehicle: water) was 100 % of control, the T/C (dose: 100.0 mg/kg/injection, schedule: Q01DX010 (oral), vehicle: water) was 109 % of control and the T/C (dose: 200.0 mg/kg/injection, schedule: Q01DX010 (oral), vehicle: water) was 100 % of control.
For O=CC12Cc3ccccc3C1CCC1(C2)OCCO1 (configuration not stated), the T/C (dose: 100.0 mg/kg/injection, schedule: Q04DX003 (ip), vehicle: saline sonified) was 90 % of control, the T/C (dose: 200.0 mg/kg/injection, schedule: Q04DX003 (ip), vehicle: saline sonified) was 110 % of control and the T/C (dose: 400.0 mg/kg/injection, schedule: Q04DX003 (ip), vehicle: saline sonified) was 110 % of control.
For O=C(OC1C(OC(=O)C(Cl)Cl)C(OC(=O)C(Cl)Cl)C(OC(=O)C(Cl)Cl)C(OC(=O)C(Cl)Cl)C1OC(=O)C(Cl)Cl)C(Cl)Cl (configuration not stated), the T/C (dose: 37.5 mg/kg/injection, schedule: Q01DX001 (ip), vehicle: saline sonified) was 95 % of control, the T/C (dose: 75.0 mg/kg/injection, schedule: Q01DX001 (ip), vehicle: saline sonified) was 100 % of control and the T/C (dose: 150.0 mg/kg/injection, schedule: Q01DX001 (ip), vehicle: saline sonified) was 86 % of control.
In the case of CCOC(=O)C(=Cc1c[nH]c2ccccc12)C(=O)OCC, the T/C (dose: 45.0 mg/kg/injection, schedule: Q04DX003 (ip), vehicle: saline with Tween-80) is reported as 109 % of control, the T/C (dose: 65.0 mg/kg/injection, schedule: Q04DX003 (ip), vehicle: saline with Tween-80) is reported as 113 % of control and the T/C [11] is reported as 100 % of control and 105 % of control. For the same compound, the T/C (dose: 150.0 mg/kg/injection, schedule: Q04DX003 (ip), vehicle: saline with Tween-80) was 109 % of control, the T/C [12] was 100 % of control and 118 % of control and the T/C [14] was 90 % of control and 109 % of control.
O=C(Nc1ccccc1C(F)(F)F)Nc1cccc2ccccc12 was tested, and the T/C (dose: 200.0 mg/kg/injection, schedule: Q01DX001 (ip), vehicle: saline with Tween-80) was 90 % of control and the T/C (dose: 400.0 mg/kg/injection, schedule: Q01DX001 (ip), vehicle: saline with Tween-80) was 86 % of control.
In the case of O=C(O)CCC(=O)CCl, the T/C (dose: 12.0 mg/kg/injection, schedule: Q01DX009 (ip), vehicle: saline) is reported as 120 % of control.
For O=c1nc(-c2ccccc2)nc2ccccn12, the T/C [4] was 101 % of control, the T/C [6] was 106 % of control and the T/C [7] was 111 % of control.
With CCC(c1ccc(OC(=O)Cc2ccc(N(CCCl)CCCl)cc2)cc1)C(CC)c1ccc(OC(=O)Cc2ccc(N(CCCl)CCCl)cc2)cc1 (configuration not stated) the T/C [2] was 96 % of control, the T/C [4] was 104 % of control and the T/C (dose: 64.0 mg/kg/injection, schedule: Q01DX009 (ip), vehicle: saline with Tween-80) was 92 % of control and 100 % of control. The T/C [6] was 104 % of control, the T/C (dose: 128.0 mg/kg/injection, schedule: Q01DX009 (ip), vehicle: saline with Tween-80) was 92 % of control and 98 % of control and the T/C [7] was 98 % of control. For the same compound, the T/C (dose: 256.0 mg/kg/injection, schedule: Q01DX009 (ip), vehicle: saline with Tween-80) was 93 % of control and 99 % of control, the T/C [13] was 107 % of control and the T/C (dose: 512.0 mg/kg/injection, schedule: Q01DX009 (ip), vehicle: saline with Tween-80) was 98 % of control and 104 % of control.

From PubChem BioAssay AID328 (DTP/NCI, 2004)
